From patent publication US4673675A, “1-(2-pyridyl) 4-cycloalkylmethyl piperazines having cardiotropic activity” (Innothera, priority 1984, dated 1987) come the findings set out here.

Series [1] relates to isolated right auricle of a guinea pig. As to the kind of experiment: Chronotropic action (bradycardizing effect) on the isolated right auricle of a guinea pig. The following applies: 1·10^-4 g·ml^-1, 30 minutes contact, % reduction of beats/minute; for inhibition at 100 µg/mL: Cavia porcellus, 0.5 h. How it is done: Guinea pigs of either sex were killed with a blow and bled, the right auricle was swiftly removed and immediately immersed in a Krebs-Henseleit solution, thermostatically controlled to 36° C.±0.5° C. and aerated with a mixture of O2 and CO2 (95% and 5%). The preparation was connected to an isometric myograph (F-50 Narco) then to a recording system (Physiograpg M-K III--Narco).
A 60 minute delay was required for ensuring chronotropic action stability.
The compounds (I) of the invention and the pharmaceutically acceptable salts thereof were added to the nutritive medium in a concentration of 1.10^-4 g.ml^-1 and left in contact with the auricle for 30 minutes. The action was evaluated by the percentage reduction of the number of beats/minute (beat/min.) before administration of the compound under test.

Series [2] deals with cardiac hemodynamics in chronically implanted wakeful dogs. The series is described as follows: Cardiac hemodynamics in chronically implanted wakeful dogs. The series is classed as in vivo, dog. How it is done:
(§1) The positive inotropic effect of compounds (I) of the invention and the pharmaceutically acceptable salts thereof were further tested on the cardiac dynamics of an anaesthetized animal and on a wakeful chronically implanted animal.
b. Test on chronically implanted wakeful dogs
The compounds were tested orally and intravenously on dogs previously implanted with a pressure probe placed in the left ventricle (Janssen) and a Doppler rate sensor placed on the aorta, the tests being carried out at the minium 8 days after implantation.

Series [3] concerns the target T1, isolated left auricle of a guinea pig (cardiac inotropic function β1) (Cavia porcellus, UniProt H0W3H1).
T1 construct: the left auricle being swiftly removed and immersed immediately in a Krebs-Henseleit solution; from tissue; host or cells: isolated left auricle of guinea pigs of either sex
As to the kind of experiment: Positive inotropic effect: contractile force of the isolated left auricle of a guinea pig. The source says: The in vitro study was made on the contractile force of the isolated left auricle of a guinea pig. The technique used was that of P. LUMBEY et Coll. […] It allowed the cardiac inotropic function β1 to be studied.
The preparation was connected to an isometric myograph (F-50 Narco), then to a recording system (Physiograph M-K III Narco). For the whole duration of the test the auricle was electrically stimulated by a neurostimulator (Equipement Industriel II) at the frequence of 90 to 120 beats/min.

Series [4] relates to cardiac hemodynamics of anaesthetized dogs. The series is described as follows: Cardiac hemodynamics in dogs anaesthetized with Nembutal, closed thorax. Format: in vivo, dog. How it is done:
as §1
(§2) a. Test on a dog anaesthetized with Nembutal
(§3) Two test protocols were carried out, one on a dog with open thorax and the other on a dog with closed thorax. The left intraventricular pressure (PIVG) and aortic pressure (supra sigmoid) (PAO) were measured with high fidelity micro-sensors (Millar 5F), the first derivative of the left ventricular pressure (dP/dt) was recorded as well as the electrocardiogram. The instantaneous alveolar PCO2 was continuously measured. Finally, different blood flow rates were measured, namely the femoral and carotid flow rates in the animals with closed thorax and the aortic and coronary flow rates in those on which a thoracotomy had been performed. These different rates were measured by the electro-magnetic method.
An analysis of the dose/effect relation on three dogs (see results shown in table V below) confirmed the results obtained on dogs with open thorax for compound 1a.

Series [5] is described as follows: Toxicity by a single intravenous administration in mice. Format: in vivo. The following applies: mouse, in vivo; single intravenous administration, mice; Litchfield and Wilcoxon; read-out: LD50 (95% confidence limit). How it is done: (§4) The toxicity of the compounds of the invention was also tested. It concerns more precisely the test of toxicity by a single administration made for all the compounds on male mice, E.O.P.S. of SWISS strain (5 animals per batch).
(§5) The compounds under test were solubilized in a […] aqueous solution of NaCl, at various concentrations and the solutions obtaoned were injected intravenously at the rate of 10 ml.kg^-1 of body weight.
(§6) The administration was made in 20 seconds, the animals being kept under clinical observation for 3 hours after administration, then daily for 7 days.

The test system of series [6] is cardiac hemodynamics in anaesthetized dogs. The series is described as follows: Cardiac hemodynamics in dogs anaesthetized with Nembutal, open thorax. Format: in vivo, dog. How it is done: as §1, §2, §3
The subject of series [7] is male mice, E.O.P.S. of SWISS strain. The series is described as follows: Toxicity by a single intravenous administration in mice. The series is classed as in vivo. The following applies: single i.v. administration; symptoms observed at the dose where there was no mortality. How it is done: as §4, §5, §6
[8] abbreviates: 0.5 mg·kg^-1 i.v., closed thorax.

T1 sequence (H0W3H1 1-470): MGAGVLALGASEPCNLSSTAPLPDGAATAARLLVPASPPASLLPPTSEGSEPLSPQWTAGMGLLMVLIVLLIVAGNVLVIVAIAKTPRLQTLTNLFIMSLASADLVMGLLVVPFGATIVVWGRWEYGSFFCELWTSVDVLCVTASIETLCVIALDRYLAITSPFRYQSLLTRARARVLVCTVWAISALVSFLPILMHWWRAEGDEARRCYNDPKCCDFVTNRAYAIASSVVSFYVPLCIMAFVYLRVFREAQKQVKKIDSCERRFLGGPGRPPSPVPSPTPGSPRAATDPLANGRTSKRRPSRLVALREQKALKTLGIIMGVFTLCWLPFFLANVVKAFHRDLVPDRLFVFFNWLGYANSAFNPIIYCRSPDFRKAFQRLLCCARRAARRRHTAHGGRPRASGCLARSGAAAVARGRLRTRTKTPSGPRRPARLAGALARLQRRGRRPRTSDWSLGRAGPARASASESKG

In general, inhibition refers to how much of the control response was suppressed. A lower inhibition goes with a response near the control. In general, LD50 refers to the dose expected to kill half of the subjects tested. Turning to `c1ccc(N2CCN(CC3CC3)CC2)nc1` [Compound 1a, 1-(2-pyridyl) 4-cyclopropylmethyl piperazine], the inhibition at 100 µg/mL in series [1] was 24%. In addition, the “increase of the dP/dt+” value in series [2] (1 mg.kg^-1 intravenously) stood at 136%. Further, the “PIVG Syst. (left intraventricular pressure) modification” value in series [2] (5 mg·kg^-1 p.o.) is on record as “+15%”. Also, in series [2] (10 mg·kg^-1 p.o.), the “D.A.O. (aortic flow rate) modification” value was “+27%”; the “F.C. (heartbeat rate, cardiac frequency) modification” value is reported as “+45%”; the “PIVG Syst. (left intraventricular pressure) modification” value is “+26%”; the “dP/dt+ (first derivative of the left ventricular pressure) modification” value is on record as “+55%”. For the same molecule, the “increase of dP/dt+/P” value in series [2] (5 and 10 mg.kg^-1 orally (results approximately similar for both doses)) is recorded as 32%. The Emax in series [3] (guinea pig, read-out: α (intrinsic activity)) turned out to be 60 ± 30%. Further, in series [3] (negative log. of the molar concentration producing 50% of maximum action, stimulated at 90 to 120 beats/min, read-out: pD2 (converted)), the EC50 is 20.9 µM. In addition, in series [4] (setting [8]), the “P.Ao m (average aortic pressure) modification” value is “+11%” and the “PtdVG (left ventricular telediastolic pressure) modification” value is -35%. In series [4] (2 mg·kg^-1 i.v., closed thorax), the “P.Ao m (average aortic pressure) modification” value is recorded as “+8%”, the “PtdVG (left ventricular telediastolic pressure) modification” value is -31% and the “dP/dt+ (first derivative of the left ventricular pressure) modification” value is listed as “+28%”. In series [4] (anaesthetized dogs, i.v.), the respiratory analeptic effect result was “appreciable and durable respiratory analeptic effect”. In addition, the “duration of the positive inotropic effect” value in series [4] (i.v., closed thorax) is “exceeds three”. The “dose at which the acme of the positive inotropic effect appeared” value in series [4] (i.v., closed thorax, increasing the dose did not increase the effect) turned out to be 0.5 mg/kg. Also, in series [5], the 50% lethal dose (LD50) at 168 h was 47 mg/kg. Further, in series [6] (0.5 mg·kg^-1 i.v.), the other parameters measured entry is listed as “did not vary significantly” and the “time of the acme of the action after injection” value is 45 min. Also, in series [6] (0.5 mg·kg^-1 i.v., significant), the “decrease of left ventricular telediastolic pressure” value stood at 28%. For the same molecule, in series [6] (1 mg·kg^-1 i.v.), the “D.A.O. (aortic flow rate) modification” value is on record as “+23%”, the “V.E.S. (systolic ejection volume) modification” value is “+13%” and the “time following injection during which dP/dt increased significantly” value was 90 min. Also, the “dP/dt+ (first derivative of the left ventricular pressure) modification” value in series [6] (1 mg·kg^-1 i.v., significant) is recorded as “+31%”.
In series [1], `c1ccc(N2CCN(CC3CCC3)CC2)nc1` [Compound 2] registered an inhibition at 100 µg/mL of 7%. Also, the median lethal dose (LD50) at 168 h in series [5] came out at 67 mg/kg.
In turn, `c1ccc(N2CCN(CC3CCCCC3)CC2)nc1` [Compound 3] yielded an inhibition at 100 µg/mL in series [1] of 13%. Besides, the LD50 at 168 h in series [5] turned out to be 81 mg/kg. Besides, the Clinical symptomatology result in series [7] was “Hypersensitivity, stereotypy”.
Molecule `CC(C)N(CCN1CCN(c2ccccn2)CC1)C(C)C` [Compound 4] gave an inhibition at 100 µg/mL in series [1] of 9%. For the same molecule, the LD50 at 168 h in series [5] was 95 mg/kg. The Clinical symptomatology entry in series [7] is given as “Cyanosis, starts”.
As to `c1ccc(N2CCN(CCN3CCCCCC3)CC2)nc1` [Compound 6], the “Reduction of the chronotropic effect” value in series [1] is listed as “Arrhythmia”. Further, the 50% lethal dose (LD50) at 168 h in series [5] was 84 mg/kg.
`CCN(CC)CCCN1CCN(c2ccccn2)CC1` [Compound 7]: in series [1], the inhibition at 100 µg/mL came to 16%. For the same molecule, the LD50 at 168 h in series [5] worked out at 96 mg/kg. Further, the Clinical symptomatology entry in series [7] is on record as “Cyanosis, apnoea”.
On to `c1ccc(N2CCN(CCCN3CCCC3)CC2)nc1` [Compound 8], for which at 100 µg/mL the inhibition in series [1] was 20%. Besides, the LD50 at 168 h in series [5] came out at 142 mg/kg.
For `c1ccc(N2CCN(CCCN3CCCCCC3)CC2)nc1` [Compound 10], in that order: 0% and 74 mg/kg.
For the molecule `c1ccc(N2CCN(CCCN3CCOCC3)CC2)nc1` [Compound 11], the “Reduction of the chronotropic effect” value in series [1] is given as “Arrhythmia”.
Consider `CC1CN(CCCN2CCN(c3ccccn3)CC2)CC(C)O1` (stereo not drawn) [Compound 12], for which the inhibition at 100 µg/mL in series [1] was determined as 0%. In addition, in series [5], the LD50 at 168 h came to 149 mg/kg.
`CCN(CC)CC(C)N1CCN(c2ccccn2)CC1` (stereo not drawn) [Compound 13]: the “Reduction of the chronotropic effect” value in series [1] is given as “Arrhythmia”. For the same molecule, the LD50 at 168 h in series [5] came to 76 mg/kg.
Consider `O=C(CN1CCN(c2ccccn2)CC1)Nc1cccc(F)c1` [Compound 14], for which 100 µg/mL produced 18% inhibition in series [1]. Also, the LD50 at 168 h in series [5] worked out at 129 mg/kg. In series [7], the Clinical symptomatology entry is “Apnoea, sedation”.
Take `O=C(CN1CCN(c2ccccn2)CC1)Nc1cc(F)cc(F)c1` [Compound 15]: the inhibition at 100 µg/mL in series [1] turned out to be 0%.
On to `O=C(CN1CCN(c2ccccn2)CC1)Nc1cccc(C(F)(F)F)c1` [Compound 16], for which the inhibition at 100 µg/mL in series [1] turned out to be 18%. The LD50 at 168 h in series [5] came to 109 mg/kg.
For `COc1cc(CN2CCN(c3ccccn3)CC2)cc(OC)c1OC` [Compound 17], in that order: 31% and 130 mg/kg.
On to `Clc1c(CN2CCN(c3ccccn3)CC2)ccc2c1OCO2` [Compound 18], for which the inhibition at 100 µg/mL in series [1] is 11%.
